Structures are written as SMILES.

Our source for the pKa values is US11892435B2, “NMR methods for measuring pH in oral care, home care and personal care products” (Colgate-Palmolive Company, priority 2018, dated 2024).

A short description of this data set: 13C NMR pH titration of sodium lactate/lactic acid solutions, nonlinear least squares fit of Equation 5. Conditions: carboxyl group of lactic acid, about 1 weight % sodium lactate and lactic acid, pH about 2 to about 5.5, fit of 13C chemical shift vs pH. Format: physicochemical.

Method: In at least one implementation, the chemical species or molecular or molecular entity may be or include a carboxyl group, such as the carboxyl group of a lactic acid, where the observed C-13 chemical shift can be expressed according to equation (5): pH=pKa+log [(δC−δCO2H)/(δCO2^−−δC)] (5)
A calibration curve was prepared for measuring lactic acid with an NMR by using standardized buffered solutions of sodium lactate and lactic acid at different mole ratios in water at varying pH. The solutions included a total concentration of sodium lactate and lactic acid at about 1 weight %, and the pH was varied from a pH of about 2 to about 5.5. NMR was performed on the samples to obtain C-13 chemical shift values. A pH electrode was utilized to measure the pH of each of the standardized samples, and the calibration curve was prepared by correlating the measured C-13 chemical shift to the pH values measured by the pH electrode, as illustrated in FIG. 4. As such, the observed ^13C chemical shift of the carbonyl group (δC) was expressed as the weighted average of the ^13C chemical shift between CO2H (δCO2H) and CO2^−(δCO2^−). The pH of the carboxyl group was described in terms of pKa of the carboxyl group, as represented by Equation 5. pH=pKa+log [(δC−δCO2H)/(δCO2^−−δC)] (5)
The nonlinear least squares fit was applied to determine the values of the pKa, the δCO2^−, and the δCO2H.

`CC(O)C(=O)O` (stereo not shown) [lactic acid]: the pKa was 3.73.

Usually pKa stands for the negative logarithm of the acid dissociation constant.
